In patent publication US20100222285A1, “METHOD OF CONTROLLING THE PROLIFERATION OF VASCULAR ENDOTHELIAL CELLS AND INHIBITING LUMEN FORMATION” (Rare Sugar Production Technical Research Laboratories, LLC, priority 2004, published 2010):
Entries after “also recorded” stand apart in the source; their conditions may differ. Read-outs that look alike come from different tables or passages of the source.

Columns and labels:
[1] = cited from earlier work; for Ald type (%): aldehyde structure; for Pira β (%): pyranose β-anomer; for Pira α (%): pyranose α-anomer; for Fra α (%): furanose α-anomer; for Fra β (%): furanose β-anomer
[2] = system: Human umbilical cord vascular endothelial cells (HUVEC); test: Experiment of growth: HUVEC cell number by WST-8 after 48 hrs; type: cell-based; details: for inhibition at 20000 µM: Homo sapiens, HUVEC, 20 mM, read-out: inhibition of growth to the control group; for antagonism of the growth inhibitory effect by D-glucose: co-existence of 20 mM D-glucose
Method: Human umbilical cord vascular endothelial cells (HUVEC) were purchased as primary cultured cells from KURABO (Kurabo Co., Osaka, Japan) and the cells up to P8 were used in experiments. The cells were inoculated on a 96-well plate at a rate of 3000 cells/well, and allowed to stand in Humedia EG2 (Kurabo) overnight (37° C., 5% CO2). Next morning, the medium was replaced by 90 μl of 2% FBS-containing Humedia EB2 (Kurabo), to which was then added 10 μl of additive, and after a lapse of 48 hrs the number of cells was counted. No medium was exchanged during this period. In counting, a tetrazolium salt WST-8 was added to each well (0.5 mM), and after 2 hrs the absorbance was measured at 450 nm. The tetrazolium salt added was reduced with an intracellular dehydrogenase to yield formazan depending on the number of cells in the well. In advance, the absorbance at 450 nm was confirmed to show a linearity within the range of 500 to 12000 cells in the well.

[3] = system: human endothelial cells and fibroblasts; test: Experiment of luminal formation: concurrent culture, CD31 staining, area of the lumen; type: cell-based; details: for effect on the luminal formation: Example 1, 0.1-20 mM, 10 days; for effect on the luminal formation of HUVEC: Example 2 (36 species), incubation for 10 days; for inhibition at 1000 µM / inhibition at 2500 µM / inhibition at 20000 µM: Homo sapiens; for inhibition at 1000 µM: 1 mM; for inhibition at 2500 µM: 2.5 mM; for antagonism of the luminal formation inhibitory effect by D-glucose: co-existence of 20 mM D-glucose; for inhibition of the acceleration of luminal formation by VEGF: with VEGF; for inhibition at 20000 µM: 20 mM
Method: Using a concurrent culture system of human endothelial cells and fibroblasts planted on a 24-well plate (Kurabo Co., Osaka, Japan), the culture medium was replaced by culture media containing a variety of additives at the early stage of luminal formation. Every 3 days, the medium was exchanged with the additive; 10 day after incubation, the endothelial cell only was stained by using mouse anti-human CD31 antibody (Kurabo Co., Osaka, Japan), goat anti-mouse IgG AlkP Conjugate (Kurabo Co., Osaka, Japan), and BCPI (5-bromo-4-chloro-3-indolyl phosphate) (Kurabo Co., Osaka, Japan) to photograph. The visualized area of the lumen was measured by means of NIH image software.

[4] = Example 2 (36 species), 48 hours

Row | Compound | Pira β (%) [1] | effect on the growth of HUVEC ([2]; Example 1, 0.1-20 mM, 48 hrs) | effect on the growth of HUVEC [2, 4] | effect on the luminal formation [3] | effect on the luminal formation of HUVEC [3] | antagonism of the luminal formation inhibitory effect by D-glucose [3] | other results
1 | O=C[C@H](O)[C@@H](O)[C@H](O)CO [Xylose] | 63% | – | – | – | – | – | Ald type (%) [1]: 0.17%
2 | O=CC[C@@H](O)[C@@H](O)CO [LDR, 2-deoxy-L-ribose] | – | effect was confirmed | inhibitory effect was observed | effect was confirmed | inhibitory effect was observed; also recorded: strong action | no apparent effect | inhibition at 20000 µM ([2]; 48 hrs): 40 to 80%; antagonism of the growth inhibitory effect by D-glucose [2]: no antagonism; inhibition at 1000 µM [3]: ~20%; inhibition at 2500 µM [3]: > 95%; inhibition of the acceleration of luminal formation by VEGF [3]: inhibit the acceleration by VEGF
3 | O=C(CO)[C@H](O)[C@H](O)[C@@H](O)CO [LTA, L-tagatose] | – | – | no remarkable effect | – | – | – | –
4 | O=C[C@@H](O)[C@@H](O)[C@H](O)CO [Lyxose] | 28% | – | – | – | – | – | Ald type (%) [1]: 0.4%; C1/1C ([1]; chair form of pyranose α): mix
5 | O=C(CO)[C@@H](O)[C@H](O)[C@H](O)CO [Fructose] | 72% | – | – | – | – | – | C1/1C ([1]; chair form of pyranose α): mix; C1/1C ([1]; chair form of pyranose β): 1C; Pira α (%) [1]: 28%
6 | O=C(CO)[C@H](O)[C@@H](O)[C@@H](O)CO [LFR, L-fructose] | – | – | no remarkable effect | – | – | – | –
7 | O=C(CO)[C@@H](O)[C@H](O)[C@H](O)CO [FRU, D-fructose] | – | – | no remarkable effect | – | – | – | –
8 | O=C[C@H](O)[C@H](O)[C@H](O)[C@H](O)CO [Allose] | 70% | – | – | – | – | – | Ald type (%) [1]: 1.38%; Fra α (%) [1]: 5%; Fra β (%) [1]: 7%
9 | O=C[C@H](O)[C@@H](O)[C@@H](O)[C@H](O)CO [Galactose] | 64% | – | – | – | – | – | Ald type (%) [1]: 0.082%; Fra α (%) [1]: trace; Fra β (%) [1]: trace
10 | O=C[C@H](O)[C@H](O)[C@H](O)CO [Ribose] | 56% | – | – | – | – | – | Ald type (%) [1]: 8.5%; C1/1C ([1]; chair form of pyranose α): mix; C1/1C ([1]; chair form of pyranose β): mix; Fra α (%) [1]: 6%; Fra β (%) [1]: 18%
11 | O=C(CO)[C@@H](O)[C@@H](O)[C@H](O)CO [Tagatose] | 11% | – | – | – | – | – | Pira α (%) [1]: 89%
12 | O=C(CO)[C@H](O)[C@@H](O)[C@H](O)CO [DSO, D-sorbose] | – | – | no remarkable effect | – | – | – | –
13 | O=C[C@@H](O)[C@@H](O)[C@@H](O)[C@@H](O)CO [LAL, L-allose] | – | no influence | – | effect was confirmed | inhibitory effect was observed | antagonized | inhibition at 20000 µM [3]: 50 to 80%
14 | O=C[C@@H](O)[C@H](O)[C@@H](O)[C@H](O)CO [Idose] | 37% | – | – | – | – | – | C1/1C ([1]; chair form of pyranose α): mix; Fra α (%) [1]: 16%; Fra β (%) [1]: 16%
15 | O=C(CO)[C@@H](O)[C@@H](O)[C@@H](O)CO [LPS, L-psicose] | – | – | no remarkable effect | – | – | – | –
16 | O=CC[C@H](O)[C@H](O)CO [DRI, 2-deoxy-D-ribose] | – | effect was confirmed | inhibitory effect was observed | effect was confirmed | inhibitory effect was observed; also recorded: strong action | no apparent effect | inhibition at 20000 µM ([2]; 48 hrs): 40 to 80%; antagonism of the growth inhibitory effect by D-glucose [2]: no antagonism; inhibition at 1000 µM [3]: ~20%; inhibition at 2500 µM [3]: > 95%; inhibition of the acceleration of luminal formation by VEGF [3]: inhibit the acceleration by VEGF
17 | O=C[C@@H](O)[C@@H](O)[C@@H](O)[C@H](O)CO [TAO, D-talose] | – | no influence | – | effect was confirmed | inhibitory effect was observed | – | inhibition at 20000 µM [3]: 50 to 80%
18 | O=C(CO)[C@@H](O)[C@@H](O)[C@H](O)CO [TAG, D-tagatose] | – | – | no remarkable effect | – | – | – | –
19 | O=C[C@@H](O)[C@H](O)[C@H](O)CO [Arabinose] | 34% | – | – | – | – | – | Ald type (%) [1]: 0.28%; C1/1C ([1]; chair form of pyranose α): 1C; C1/1C ([1]; chair form of pyranose β): mix; Fra α + Fra β total (%) ([1]; furanose, total of α and β): total 3%
20 | O=C(CO)[C@H](O)[C@H](O)[C@H](O)CO [Psicose] | 67% | – | – | – | – | – | C1/1C ([1]; chair form of pyranose β): 1C; Pira α (%) [1]: 33%
21 | O=C[C@@H](O)[C@H](O)[C@H](O)[C@H](O)CO [ALT, D-altrose] | – | no influence | – | effect was confirmed | inhibitory effect was observed | no apparent effect | inhibition at 20000 µM [3]: 50 to 80%; inhibition of the acceleration of luminal formation by VEGF [3]: inhibit the acceleration by VEGF
22 | O=C[C@H](O)[C@H](O)[C@@H](O)[C@H](O)CO [GUL, D-gulose] | – | no influence | – | effect was confirmed | inhibitory effect was observed | no apparent effect | inhibition at 20000 µM [3]: 50 to 80%; inhibition of the acceleration of luminal formation by VEGF [3]: inhibit the acceleration by VEGF
23 | O=C[C@@H](O)[C@@H](O)[C@@H](O)CO [LRI, L-ribose] | – | no influence | – | effect was confirmed | inhibitory effect was observed | no apparent effect | inhibition at 20000 µM [3]: 50 to 80%; inhibition of the acceleration of luminal formation by VEGF [3]: inhibit the acceleration by VEGF
24 | O=C[C@H](O)C[C@H](O)[C@H](O)CO [3DG, 3-deoxy-D-glucose] | – | effect was confirmed | inhibitory effect was observed | effect was confirmed | inhibitory effect was observed | no apparent effect | effect on the growth of HUVEC ([2]; Example 1, 0.1-20 mM, 48 hrs, listed as 3-deoxy-D-glucose): inhibit both; inhibition at 20000 µM ([2]; 48 hrs): 40 to 80%; antagonism of the growth inhibitory effect by D-glucose [2]: antagonized; effect on the luminal formation ([3]; listed as 3-deoxy-D-glucose): inhibit both; inhibition at 20000 µM [3]: 50 to 80%
25 | O=C(CO)[C@@H](O)[C@H](O)[C@@H](O)CO [SOR, L-sorbose] | – | effect was confirmed; also recorded: inhibitory effect for growth | growth inhibition; also recorded: inhibitory effect was observed | no influence | – | – | inhibition at 20000 µM ([2]; 48 hrs): 40 to 80%; antagonism of the growth inhibitory effect by D-glucose [2]: no antagonism
26 | O=C[C@H](O)[C@H](O)[C@H](O)CO [RIB, D-ribose] | – | no influence | – | effect was confirmed | inhibitory effect was observed | no apparent effect | inhibition at 20000 µM [3]: 50 to 80%; inhibition of the acceleration of luminal formation by VEGF [3]: inhibit the acceleration by VEGF
